The text below walks through data of patent publication US9789127B2, “N-acyl-phosphatidyl-ethanolamines and/or mixtures of N-acyl-ethanolamines with phosphatidic acids or lysophosphatidic acids” (HUNZA DI PISTOLESI ELVIRA & C. S.A.S., priority 2003, dated 2017).

One experiment deals with plasma platelets. Nature of the experiment: Membrane fluidity of plasma platelets (TMA-DPH fluorescent probe) of rats on a high-calorie, high-fat, high-cholesterol diet. It counts as in vivo, rat. As to conditions: expressed as a % of the control values at time 0; rats after 20 day diet treatment, substance in the diet. The procedure:
(§1) In the experimental tests, the rats were given a high-calorie, high-triglyceride, high-cholesterol diet. The following parameters were evaluated after twenty days treatment: • 1) effect of the compositions on the lipoperoxide levels in the plasma, liver, brain and heart; • 2) effect of the compositions on variations in body weight; • 3) effect of the compositions on variations in membrane fluidity of ghost erythrocytes and plasma platelets; • 4) effect of the compositions on the functionality of the hepatic mitochondria, evaluated by measuring: a) O2 consumption; b) reduced glutathione; c) the potential of the mitochondrial membranes; • 5) effect of the compositions on plasma levels of total cholesterol and HDL-cholesterol; • 6) effect of the compositions on plasma levels of total triglycerides.
(§2) 80 Male rats weighing 150-200 g each were used. […] The animals were given the same diet as the controls for 20 days, except that 50 mg of NOPE and 25 mg of B.F. (corresponding to ˜75 mg of the preparation described in example 6) replaced the same quantity of olive oil (olive oil used: 4.825%). • 7th group: treated with green tea bioflavones (B.F.). The animals were given the same diet as the controls for 20 days, except that 25 mg of B.F. replaced the same quantity of olive oil (olive oil used: 4.875%). […]

Experiment [1] can be described thus: Experimental tests on rats, 20 day diet treatment: overall assessment of Tables I-IV. Format: in vivo, rat. As to conditions: oral administration, 20 days. The procedure:
as §1
(§3) 80 Male rats weighing 150-200 g each were used. […] The animals were given the same diet as the controls for 20 days, except that 50 mg of NOPE and 25 mg of B.F. (corresponding to ˜75 mg of the preparation described in example 6) replaced the same quantity of olive oil (olive oil used: 4.825%). • 7th group: treated with green tea bioflavones (B.F.). The animals were given the same diet as the controls for 20 days, except that 25 mg of B.F. replaced the same quantity of olive oil (olive oil used: 4.875%).

Experiment [2] concerns lipoperoxide levels (malonyldialdehyde, MDA). In words: Lipoperoxide levels (malonyldialdehyde) in plasma, liver, brain and heart of rats on the diet. It counts as in vivo, rat. The settings on record: rats after 20 day diet treatment. The procedure:
as §1
(§4) 80 Male rats weighing 150-200 g each were used. The animals were divided into 8 groups of 10 animals: • 1st group: control (C); 10 animals (control at time 0) were used as is, and 10 were given a standard high-calorie, high-fat, high-cholesterol diet for 20 days, consisting of: • casein: 20%; mixture of trace elements and mineral salts: 3.5%; mixture of vitamins: 0.1%; choline bitartrate: 0.2%; cellulose: 2%; cholesterol: 0.5%; sodium cholate: 0.25%; saccharose: 58.44%, lard: 10.0% and olive oil: 4.9%. • 2nd group: treated with N-oleoyl-ethanolamine as such (NOE); the animals were given the same diet as the controls for 20 days, except that 50 mg of NOE replaced the same quantity of olive oil (olive oil used: 4.85%). • 3rd group: treated with N-oleoyl-phosphatidylethanolamine prepared as described in example 1 (NOPE); the animals were given the same diet as the controls for 20 days, except that 50 mg of NOPE (prepared as described in example 1) replaced the same quantity of olive oil (olive oil used: 4.85%). • 4th group: treated with N-oleoyl-ethanolamine+phosphatidic acid prepared as described in example 2: (NOE+PA); the animals were given the same diet as the controls for 20 days, except that 400 mg of the preparation described in example 2 (containing ˜50 mg of NOE and 150 mg of PA) replaced the same quantity of olive oil (olive oil used: 4.50%). • 5th group: treated with N-oleoyl-ethanolamine+lysophosphatidic acid prepared as described in example 3: (NOE+LPA); the animals were given the same diet as the controls for 20 days, except that 150 mg of the preparation described in example 3 (containing ˜50 mg of NOE and 100 mg of LPA) replaced the same quantity of olive oil (olive oil used: 4.75%). • 6th group: treated with “phosphobioflavonic complexes” of N-oleoyl-phosphatidylethanolamine and green tea bioflavones (B.F.) prepared as described in example 6 (NOPE+B.F.). The animals were given the same diet as the controls for 20 days, except that 50 mg of NOPE and 25 mg of B.F. (corresponding to ˜75 mg of the preparation described in example 6) replaced the same quantity of olive oil (olive oil used: 4.825%). • 7th group: treated with green tea bioflavones (B.F.). The animals were given the same diet as the controls for 20 days, except that 25 mg of B.F. replaced the same quantity of olive oil (olive oil used: 4.875%).
Malonyldialdehyde is assayed in accordance with the procedure described by K. Yagi et al., 1982, in “Lipid Peroxides in Biology and Medicine”, Academic Press, New York, 99.324-340.

In another experiment the test system is ghost erythrocytes. Nature of the experiment: Membrane fluidity of ghost erythrocytes (TMA-DPH fluorescent probe) of rats on a high-calorie, high-fat, high-cholesterol diet. It counts as in vivo, rat. As to conditions: expressed as a % of the control values at time 0; rats after 20 day diet treatment, substance in the diet. As for the experimental part: as §1, §2

A short description of experiment [3]: Variation in body weight of rats on the diet. Format: in vivo, rat. As to conditions: rats after 20 day diet treatment. As for the experimental part: as §1, §3
Experiment [4] concerns hepatic mitochondria. Nature of the experiment: Functionality of hepatic mitochondria: hepatocellular O2 consumption. As to conditions: rats after 20 day diet treatment. It counts as in vivo, rat. The procedure: as §1, §2
Experiment [5] in a line: Plasma total cholesterol, HDL cholesterol and triglyceride levels of rats on the diet. Format: in vivo, rat. As to conditions: rats after 20 day diet treatment. The procedure: as §1, §4
Experiment [6] has as its system hepatic mitochondria. Nature of the experiment: Functionality of hepatic mitochondria: reduced hepatocellular glutathione content. It counts as in vivo, rat. The settings on record: rats after 20 day diet treatment. As for the experimental part: as §1, §2
Experiment [7] relates to hepatic mitochondria. Nature of the experiment: Functionality of hepatic mitochondria: mitochondrial membrane potential. The settings on record: control rats at time 0 = 100%; rats after 20 day diet treatment. Format: in vivo, rat. The procedure: as §1, §2
Experiment [8] is described as follows: Diet treatment tests carried out on man. Format: in vivo. The settings on record: oral administration. The source says:
A series of experimental tests on rats and clinical tests on man have been carried out to study the pharmacological and/or dietetic characteristics of the composition of the invention.
In all the diet treatment tests carried out on man, the effects obtainable by orally the formulations claimed by the invention (NAPE; NAE+PA; NAE+LPA; NAPE+B.F. and NAE plus PA and/or LPA+B.F.) always provided highly significant results and advantages, both in preventing biological signs of aging (improvement in mitochondrial activity, better membrane fluidity, improvement in plasma antioxidant defences, and limited weight increase) and improving the clinical parameters tested in relation to prevention of aging, and many of the metabolic disorders associated therewith.

As to “N-oleoyl-phosphatidylethanolamine [NOPE]”, the “Membrane fluidity (plasma platelets)” value in the experiment with plasma platelets turned out to be 81%. Besides, the “Statistical significance of the effects of Tables I-IV (membrane fluidity, antioxidant defences, body weight, cholesterol and triglycerides, mitochondria)” value in [1] is reported as “always statistically significant”. Besides, in experiment [2], the “MDA BRAIN” value is listed as 85 ± 9 nmoles of malonyldialdehyde (MDA) per gram of tissue, the “MDA HEART” value is recorded as 32 ± 7 nmoles of malonyldialdehyde (MDA) per gram of tissue, the “MDA LIVER” value is recorded as 33.1 ± 6.5 nmoles of malonyldialdehyde (MDA) per gram of tissue and the “MDA PLASMA” value is recorded as 3.8 ± 0.4 nmoles of malonyldialdehyde (M. For the same molecule, the “Membrane fluidity (ghost erythrocytes)” value in the experiment with ghost erythrocytes is 84%. The Body weight in experiment [3] came to 209 ± 18 gm. The “Hepatocellular O2 consumption” value in the experiment on hepatic mitochondria [4] is recorded as 408 ± 62 umoles O2/min per 10^7 cells. In addition, in [5], the HDL cholesterol came out at 31.6 ± 3.9 mg/dL, the Total cholesterol is 110.3 ± 10.1 mg/dL and the Total triglycerides stood at 71.4 ± 8.7 mg/dL. This molecule also came in with a Reduced glutathione in the experiment on hepatic mitochondria [6] of 41 ± 5 nmoles × 10^6 cells. This molecule also had a Mitochondrial membrane potential with hepatic mitochondria [7] of 81%.
`CCCCCCCC/C=C\CCCCCCCC(=O)NCCO` [NOE, N-oleoyl-ethanolamine]: in the experiment on plasma platelets, the “Membrane fluidity (plasma platelets)” value is reported as 70%. For the same molecule, the “Statistical significance of the effects of Tables I-IV (membrane fluidity, antioxidant defences, body weight, cholesterol and triglycerides, mitochondria)” value in [1] is listed as “no statistically significant benefit”. In experiment [2], the “MDA BRAIN” value was 106 ± 7 nmoles of malonyldialdehyde (MDA) per gram of tissue, the “MDA HEART” value is given as 44 ± 9 nmoles of malonyldialdehyde (MDA) per gram of tissue, the “MDA LIVER” value is 44.1 ± 8.2 nmoles of malonyldialdehyde (MDA) per gram of tissue and the “MDA PLASMA” value is given as 5.0 ± 0.6 nmoles of malonyldialdehyde (M. In addition, in the experiment with ghost erythrocytes, the “Membrane fluidity (ghost erythrocytes)” value came out at 72%. In experiment [3], the Body weight came out at 221 ± 16 gm. In addition, in experiment [8], the “Benefit in preventing biological signs of aging and improving clinical parameters” value was “no significant benefit”. In addition, the “Hepatocellular O2 consumption” value in the experiment on hepatic mitochondria [4] is reported as 368 ± 52 umoles O2/min per 10^7 cells. In experiment [5], the HDL cholesterol stood at 28.9 ± 2.8 mg/dL, the Total cholesterol turned out to be 120.4 ± 12.7 mg/dL and the Total triglycerides amounted to 80.5 ± 6.8 mg/dL. Moreover, the Reduced glutathione with hepatic mitochondria [6] is listed as 36 ± 6 nmoles × 10^6 cells. Besides, in the experiment on hepatic mitochondria [7], the Mitochondrial membrane potential came to 70%.
